Laboratory results: US20090304821A1, “Pharmaceutical Combination” (Takeda Pharmaceutical Company Limited, priority 2006, published 2009)

Biological target: T1, human CaR (Homo sapiens, UniProt P41180)
T1 construct: expressed in transfected cells; cDNA amplified from human kidney cDNA (TOYOBO); membrane fraction used
T1 sequence (P41180 20-1078): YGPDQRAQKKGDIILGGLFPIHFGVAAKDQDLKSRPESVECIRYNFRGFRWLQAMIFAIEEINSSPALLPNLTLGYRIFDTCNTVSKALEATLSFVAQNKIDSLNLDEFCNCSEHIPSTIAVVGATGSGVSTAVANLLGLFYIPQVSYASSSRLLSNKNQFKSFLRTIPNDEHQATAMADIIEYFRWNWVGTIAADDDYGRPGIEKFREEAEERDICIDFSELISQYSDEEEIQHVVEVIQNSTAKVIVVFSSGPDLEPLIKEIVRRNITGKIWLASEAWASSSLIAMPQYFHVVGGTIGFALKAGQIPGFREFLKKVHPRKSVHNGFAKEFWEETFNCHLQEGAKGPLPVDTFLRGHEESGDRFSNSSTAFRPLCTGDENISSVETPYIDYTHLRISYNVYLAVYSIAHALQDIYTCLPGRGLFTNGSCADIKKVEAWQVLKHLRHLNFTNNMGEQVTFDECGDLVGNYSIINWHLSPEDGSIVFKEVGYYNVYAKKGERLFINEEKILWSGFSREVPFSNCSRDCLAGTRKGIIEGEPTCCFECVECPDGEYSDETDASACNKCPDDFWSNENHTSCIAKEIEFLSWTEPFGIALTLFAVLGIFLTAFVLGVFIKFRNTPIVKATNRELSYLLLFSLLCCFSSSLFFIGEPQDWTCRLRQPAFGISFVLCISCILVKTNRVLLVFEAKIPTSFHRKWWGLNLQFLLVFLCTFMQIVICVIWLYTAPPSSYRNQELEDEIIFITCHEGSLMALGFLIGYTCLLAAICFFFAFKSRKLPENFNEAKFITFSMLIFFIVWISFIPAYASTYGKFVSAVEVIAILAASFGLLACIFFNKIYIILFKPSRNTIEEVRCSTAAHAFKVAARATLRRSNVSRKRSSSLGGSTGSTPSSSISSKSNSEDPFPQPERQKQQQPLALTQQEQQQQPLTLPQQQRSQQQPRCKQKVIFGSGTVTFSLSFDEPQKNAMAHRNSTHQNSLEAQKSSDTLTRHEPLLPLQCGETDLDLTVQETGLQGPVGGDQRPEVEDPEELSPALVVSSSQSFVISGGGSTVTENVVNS
Experiment: GTPγS binding assay on human CaR-expressing CHO cell membrane
Type: biochemical
Conditions: 1 μM test compound, % of binding with 6 mM calcium only, compounds marked antagonist
Description: Preparation of Membrane Fraction is Described Bellow. The human CaR-expressing CHO cells were inoculated to a F500 flask in 1.8×10^5 cells/flask followed by cultivation for 2 days. The cells were scraped with 10 ml of Phosphate-Buffered Saline containing 0.02% EDTA. After centrifugation (2000 rpm, 10 min) of the cells, the cell pellet was resuspended into 12 ml of homogenate buffer solution (10 mM NaHCO3, 1 mM EDTA, 1× Protease inhibitor cocktail (pH 7.4)) and homogenized by Polytron™ (2000 rpm, 1 min). The cell debris was removed by centrifugation (2000 rpm, 10 min), and then the CaR-expressing cell membrane fraction was collected by ultracentrifugation (Beckman 70 Ti type rotor, 30000 rpm, 1 hour).
The GTPγS binding activity was measured as follows. Twenty μg of the CaR-expressing cell membrane was incubated with test compounds for 10 min. The assays were carried out at room temperature for an hour in a reaction mixture solution containing 20 mM HEPES (pH.7.4), 100 mM NaCl, 1 mM MgCl2, 167 μg/ml DTT, 5 μM guanosine 5′-diphosphate, 0.4 nM [^35S]-guanosine 5′-(γ-thio) triphosphate ([^35S]-GTPγS) and 6 mM CaCl2. The reaction mixture was filtered through a GF/C filter. After washing four times with 300 μl of Phosphate-Buffered Saline, the amount of [^35S]-GTPγS bound to the filter was measured using a Top-count scintillation counter.
Effects of test compounds on [^35S]-GTPγS binding were expressed in percentage terms. This was calculated from the equation [100×(t′−b)]/(t−b)]. Herein, t′, t and b are values of [^35S]-GTPγS binding (dpm), t′ is a value in the presence of 6 mM calcium and the test compound, t is a value in the presence of 6 mM calcium only and b is a value in the absence of both 6 mM calcium and the test compound.

SMILES | [^35S]-GTPγS binding (%)
COc1ccc(C(CNC(=O)c2cnn3c2NC(c2ccccc2)CC3C(F)(F)F)c2ccccc2)cc1 (stereo not shown) [Test Compound 1, N-(2-(4-methoxyphenyl)-2-phenylethyl)-5-phenyl-7-(trifluoromethyl)-4,5,6,7-tetrahydropyrazolo[1,5-a]pyrimidine-3-carboxamide] | 34 (1 μM) %
COc1ccc(C(NC(=O)c2cnn3c2NC(c2ccccc2)CC3C)c2ccc(OC)cc2)cc1 (stereo not shown) [Test Compound 2, N-(bis(4-methoxyphenyl)methyl)-7-methyl-5-phenyl-4,5,6,7-tetrahydropyrazolo[1,5-a]pyrimidine-3-carboxamide] | 0 (1 μM) %
CCC(CC)(NC(=O)c1cnn2c1NC(c1ccccc1)CC2C(F)(F)F)c1ccc(C(F)(F)F)cc1 (stereo not shown) [Test Compound 3, N-(1-ethyl-1-(4-(trifluoromethyl)phenyl)propyl)-5-phenyl-7-(trifluoromethyl)-4,5,6,7-tetrahydropyrazolo[1,5-a]pyrimidine-3-carboxamide] | 0 (1 μM) %
Cc1ccc(C(OC2CCN(C(=O)c3cnn4c3NC(c3ccccc3)CC4C(F)(F)F)CC2)c2ccc(C)cc2)cc1 (stereo not shown) [Test Compound 4, 3-((4-(bis(4-methylphenyl)methoxy)-1-piperidinyl)carbonyl)-5-phenyl-7-(trifluoromethyl)-4,5,6,7-tetrahydropyrazolo[1,5-a]pyrimidine] | 10 (1 μM) %
CC1(C(F)(F)F)CC(c2ccccc2)Nc2c(C(=O)NC34CC5CC(CC(C5)C3)C4)cnn21 (stereo not shown) [Test Compound 5, N-(1-adamantyl)-7-methyl-5-phenyl-7-(trifluoromethyl)-4,5,6,7-tetrahydropyrazolo[1,5-a]pyrimidine-3-carboxamide] | 12 (1 μM) %
CCC(CC)(NC(=O)c1cnn2c1NC(c1ccccc1)CC2(C)C)c1ccc(-c2ccsc2)cc1 (stereo not shown) [Test Compound 6, N-(1-ethyl-1-(4-(3-thienyl)phenyl)propyl)-7,7-dimethyl-5-phenyl-4,5,6,7-tetrahydropyrazolo[1,5-a]pyrimidine-3-carboxamide] | 0 (1 μM) %

Same assay, conditions: 10 μM test compound, % of binding with 6 mM calcium only, compound marked agonist

SMILES | [^35S]-GTPγS binding (%)
O=C(NCC(c1ccccc1)N1CCCC1)c1cnn2c1NC(c1ccccc1)CC2C(F)(F)F (stereo not shown) [Test Compound 7, 5-phenyl-N-(2-phenyl-2-(1-pyrrolidinyl)ethyl)-7-(trifluoromethyl)-4,5,6,7-tetrahydropyrazolo[1,5-a]pyrimidine-3-carboxamide] | 256 (10 μM) %
